Test results as given in patent US7015231B2, “Chemical compounds” (SmithKline Beecham Corporation, priority 2001, dated 2006).

These compounds were tested against T1, TrkA (Homo sapiens, UniProt P04629) (assay: TrkA substrate phosphorylation assay (tyrosine kinase activity, synthetic peptide substrate, 33P-ATP, p81 filter plates)). Conditions: GST-fusion of the TrkA intracellular domain, 30 uM ATP, 50 uM Src peptide, RT for 120′.
T1 construct: The enzyme is a GST-fusion of the intracellular domain expressed in SF9 cells; GST; purchased Regeneron; host or cells: SF9 cells
T1 sequence (P04629 440-796 limits assumed, species assumed): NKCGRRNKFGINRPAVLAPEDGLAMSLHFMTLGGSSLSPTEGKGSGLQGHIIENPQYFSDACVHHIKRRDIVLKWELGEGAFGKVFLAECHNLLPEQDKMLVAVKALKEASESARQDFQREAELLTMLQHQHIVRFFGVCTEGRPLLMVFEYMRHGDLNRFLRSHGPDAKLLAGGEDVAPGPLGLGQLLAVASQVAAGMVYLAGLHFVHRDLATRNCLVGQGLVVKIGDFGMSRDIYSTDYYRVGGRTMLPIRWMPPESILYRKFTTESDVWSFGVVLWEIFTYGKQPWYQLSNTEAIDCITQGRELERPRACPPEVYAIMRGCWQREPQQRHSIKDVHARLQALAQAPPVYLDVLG
Format: biochemical
Experimental: Substrate phosphorylation assays were carried out as follows:
The enzyme is a GST-fusion of the intracellular domain expressed in SF9 cells. The enzyme is expressed and purified by Regeneron. The enzyme is preincubated with cold ATP and Mg to allow autophosphorylation prior to running the screen. […] The assay is performed in 96 well microtitre plates, and reaction products are detected following filtration through millipore p81 phosphocellulose plates.
Compound `Cn1cc(C=C2C(=O)Nc3ncccc32)c2ccccc21` [Example 4] has an IC50 of under 10 nM. `O=C1Nc2cccnc2C1=Cc1c[nH]c2ccccc12` [Example 3] showed an IC50 of 10 to 250 nM. For `COc1ccccc1-c1cc(C=C2C(=O)Nc3ncc(Br)cc32)cc(Br)c1O` [Example 1, 3-(3-Bromo-4-hydroxy-5-(2′methoxyphenyl)-benzylidene)-5-bromo-1,3-dihydro-pyrrolo[2,3-b]pyridin-2-one], the IC50 was under 10 nM. Compound `O=C1Nc2ncccc2C1=Cc1c[nH]c2ccccc12` [Example 5] has an IC50 of under 10 nM.
